The values that follow come from EP3362444B1, “COMPOUNDS” (Exonate Limited, priority 2015, dated 2017).

In assay [1] the target is T1, SRPK1 (Homo sapiens, UniProt Q96SB4).
T1 construct: 0.1 µg of purified SRPK1 kinase
The assay can be described thus: In vitro kinase assay (Kinase-Glo), SRPK1 inhibition. The class given is biochemical. The following applies: for IC50: SRPK1 inhibition assay, 1 µM ATP, SRSF1 RS peptide, 30°C 10 minutes. The procedure: Candidate compounds were tested for SRPK1 inhibition using a Kinase-Glo assay (Promega, Southampton, UK32). […] Candidate compounds were serially diluted from 10 µM to 0.5 nM and added to the reaction mixture, wells with omitted SRPK1 kinase and omitted compounds were also added as controls. All wells contained 1% DMSO (Fisher Scientific, Loughborough, UK). One micromolar ATP was added, wells minus ATP were used as background controls. The plate was then incubated at 30°C for 10 minutes. An equal volume of Kinase-Glo (25 µL; Promega) was added to each well and the plate read for luminescence using a Fluostar Optima (BMG Labtech) .

For assay [2], the target named is T1, SRPK1. The assay can be described thus: Differential scanning fluorimetry (DSF). The class given is binding. The conditions noted are these: higher ΔTm indicates higher affinity. The procedure: Differential Scanning Fluorimetry was performed as described in Federov et al (2011). […]
A general note: In DSF a fluorescence change marks the thermal transition of the protein.

For another assay, the system named is laser-induced CNV. In words: Laser-induced choroidal neovascularisation (CNV) model, topical eye drops. The conditions noted are these: for anti-angiogenic efficacy as an eye drop (CNV lesion size): twice daily eye drops, compared with reference compound, Figures 4-7. The class given is in vivo, C57/B6 mice. The procedure:
6-8 week-old female C57/B6 mice were anesthetized with an intraperitoneal injection of a mixture of 50 mg/kg ketamine and 0.5 mg/kg medetomidine. The pupils were immediately dilated by topical (eyedrop) application with a dilator such as 5% phenylephrine hydrochloride and 1% tropicamide. Four photocoagulation lesions were delivered with a green Merilas 532α laser (450 mW, 130 ms) between the "large" retinal vessels in clear space with no vessels in a peripapillary distribution at a distance of 1-2 disc-diameters in each eye. Only clean laser lesions with a subretinal bubble at the time of treatment were included in the study. Immediately following laser photocoagulation the animals were given topical eye drops of candidate compounds twice daily (10 µl, eyes held for 30 seconds to prevent animal wiping drop away).
After one week, mice were anesthetized with an intraperitoneal injection of a mixture of 50 mg/kg ketamine and 0.5 mg/kg medetomidine. The pupils were immediately dilated by topical (eyedrop) application with a dilator such as 5% phenylephrine hydrochloride and 1% tropicamide. Mice were administered an intraperitoneal injection of sodium fluorescein (10%). Phase contrast and green fluorescent fundus images were taken with an angiography microscope and camera with each lesion in focus. The mice were killed by a schedule 1 method and eyes were either unfixed for retinal dissection and protein extraction, or fixed and enucleated and choroids stained and examined.

Assay [3] concerns primary RPE cells and ARPE-19 cells. The assay can be described thus: qRT-PCR and conventional PCR of VEGF-A alternative splicing. The following applies: Figures 8 and 9. The class given is cell-based, human. An excerpt: Primary human retinal epithelial cells were lysed in Trizol reagent and mRNA was extracted using the method of Chomczynski and Sacchi, or using an RNeasy RNA extraction kit (Qiagen, UK). mRNA was reverse transcribed using Thermoscript reverse transcriptase (Fisher Scientific, UK). The cDNA was amplified using primers designed to amplify the region spanning the proximal and distal splice sites in human VEGF-A165a and VEGF-A165b, to amplify both isoforms and differentiate between them due to the fact that the exon 8b-containing isoform is 66-bp shorter than the exon 8a-containing isoform. The primers used were; 5'-[…]-3' (SEQ ID NO:2) and 5'-[…]-3' (SEQ ID NO:3) with the following conditions; 96°C for 2 min followed by 45 cycles at 96°C-30s, 60°C-30s and 72 °C -30 s. The PCR mix consisted of DNA: 200 ng, MgCl2 0.25 mM, Primer each 1 nM, Taq polymerase 1 unit and dH2O up to 25 µl. Control plasmid concentration: VEGF165a 500 ng and VEGF165b 1 µg. PCR products were run on 3% agarose gels containing 0.5 µg/ml ethidium bromide.
RNA was isolated and reverse transcribed as described above. Quantitative PCR (qPCR) was performed with a LightCycler 480 (Roche) q-PCR machine. The qPCR mix included PCR-grade dH2O 3 µl, PCR Primer (1 µM) 2 µl. […]
VEGF-A alternative splicing was further measured in retinal pigmented epithelial cells by qRT-PCR and conventional PCR.
A general note: Quantitative PCR measures a nucleic acid by following its amplification.

The subject of assay [4] is retinal pigmented epithelial cells. The assay can be described thus: Isoform specific VEGF ELISA in retinal pigmented epithelial cells. It counts as cell-based. The conditions noted are these: relative to DMSO control; Figure 3. The procedure:
96-well clear microplate (high sensitivity thermo immulon or costar 9018) were coated with 100 µL of 10 µg/ml VEGFxxxb or 0.25 µg/ml anti-hVEGF165a per well. The plate was sealed with parafilm and incubated overnight on the shaker at room temp. Each well was aspirated and washed with Wash Buffer (200 µl PBS-Tween 0.05%), two times for a total of three washes. After the last wash, remaining Wash Buffer was removed by inverting the plate and blotting it against clean paper towels. Plates were blocked by adding 100 µl of Reagent Diluent (1%BSA/PBS) to each well and incubated at room temp on a shaker for 2 hours. The aspiration/wash step was repeated. 100 µL of standards or samples in 1% BSA/PBS were added to each well, covered with parafilm and incubated 2 hours at room temperature. The aspiration/wash was repeated and 100 µL of 100 ng/ml Detection Antibody (BAF293), diluted in Reagent Diluent, was added to each well which were covered with parafilm and incubated 2 hours at room temp. The aspiration/wash was repeated and 100 µL of the working dilution of Streptavidin-HRP (1:200 dilution) was added to each well. […] The optical density of each well was measured immediately, using a microplate reader set to 450 nm.
To determine whether these compounds could switch splicing of VEGF isoforms, VEGF was measured in retinal pigmented epithelial cells by isoform specific ELISA.
(In general: ELISA stands for enzyme-linked immunosorbent assay.)

Entries after “also recorded” stand apart in the source; their conditions may differ.

T1 sequence (Q96SB4 whole entry): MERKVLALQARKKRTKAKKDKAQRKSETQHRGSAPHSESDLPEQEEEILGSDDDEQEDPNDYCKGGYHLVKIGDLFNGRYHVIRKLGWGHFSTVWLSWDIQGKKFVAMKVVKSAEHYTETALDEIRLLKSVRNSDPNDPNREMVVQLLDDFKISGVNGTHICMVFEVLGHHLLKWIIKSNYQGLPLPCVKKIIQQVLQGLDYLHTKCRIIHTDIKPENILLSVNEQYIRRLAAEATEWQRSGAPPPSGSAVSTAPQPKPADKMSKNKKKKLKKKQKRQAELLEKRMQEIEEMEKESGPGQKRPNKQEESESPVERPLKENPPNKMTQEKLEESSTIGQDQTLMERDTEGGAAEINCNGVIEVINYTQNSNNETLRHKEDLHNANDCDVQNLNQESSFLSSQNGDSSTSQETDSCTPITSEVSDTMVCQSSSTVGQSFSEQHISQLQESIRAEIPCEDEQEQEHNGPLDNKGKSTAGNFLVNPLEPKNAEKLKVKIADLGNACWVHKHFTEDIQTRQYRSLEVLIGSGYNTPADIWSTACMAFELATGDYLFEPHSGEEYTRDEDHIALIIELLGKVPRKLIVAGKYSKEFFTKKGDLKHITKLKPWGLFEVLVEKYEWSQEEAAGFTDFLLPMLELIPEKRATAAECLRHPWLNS

One may read the IC50 as the concentration at which inhibition is half-maximal. Molecule `Cc1ccc(C(=O)Nc2cc(C(F)(F)F)ccc2N2CCN(Cc3cn(Cc4ccccc4)nn3)CC2)o1` [Compound 7, N-(2-(4-((1-benzyl-1H-1,2,3-triazol-4-yl)methyl)piperazin-1-yl)-5-(trifluoromethyl)phenyl)-5-methylfuran-2-carboxamide] displayed an IC50 on SRPK1 [1] of 337 nM. For the same molecule, the “DSF (ΔTm/°C)” value on SRPK1 [2] was found to be 8.84 °C.
With `O=C(Nc1cc(C(F)(F)F)ccc1N1CCN(Cc2cc[nH]n2)CC1)c1ccco1` [Compound 9, N-(2-(4-((1H-pyrazol-3-yl)methyl)piperazin-1-yl)-5-(trifluoromethyl)-phenyl)furan-2-carboxamide], it took 62.4 nM to reach half-maximal inhibition against SRPK1 [1] (IC50). The “DSF (ΔTm/°C)” value at SRPK1 [2] is 11.64 °C.
Taken in the same sequence, the figures for `O=C(Nc1cc(C(F)(F)F)ccc1N1CCN(Cc2cscn2)CC1)c1ccc(C2CCOCC2)o1` [Compound 19, 5-(tetrahydro-2H-pyran-4-yl)-N-(2-(4-(thiazol-4-ylmethyl)piperazin-1-yl)-5-(trifluoromethyl)phenyl)furan-2-carboxamide] were 1.7 nM and 18.03 °C.
Regarding `O=C(Nc1cc(C(F)(F)F)ccc1N1CCN(Cc2cocn2)CC1)c1ccc(-c2ccncc2)o1` [N-(2-(4-(oxazol-4-ylmethyl)piperazin-1-yl)-5-(trifluoromethy] [N-(2-(4-(oxazol-4-ylmethyl)piperazin-1-yl)-5-(trifluoromethyl)phenyl)-5-(pyridin-4-yl)furan-2-carboxamide], in the assay on laser-induced CNV (eye drop), the “factor more effective than the known pazopanib-based eye drop treatment for AMD” value was 10. Also, the “anti-angiogenic efficacy as an eye drop (CNV lesion size)” value in the assay on laser-induced CNV is “same efficacy”.
On to `O=C(Nc1cc(C(F)(F)F)ccc1N1CCN(Cc2cscn2)CC1)c1ccco1` [Compound 11, N-(2-(4-(thiazol-4-ylmethyl)piperazin-1-yl)-5-(trifluoromethyl)-phenyl)furan-2-carboxamide], for which the “DSF (ΔTm/°C)” value at SRPK1 [2] came to 12.94 °C.
`O=C(Nc1cc(C(F)(F)F)ccc1N1CCN(Cc2cc[nH]n2)CC1)c1ccc(C2CCOCC2)o1` [Compound 14, N-(2-(4-((1H-pyrazol-3-yl)methyl)piperazin-1-yl)-5-(trifluoromethyl)-phenyl)-5-(tetrahydro-2H-pyran-4-yl)furan-2-carboxamide] showed a half-inhibitory concentration (IC50) at SRPK1 [1] of 3.5 nM. In addition, the “levels of VEGF165b relative to VEGF165 RNA” value in assay [3] is listed as “decrease VEGF-A165a/VEGF165b mRNA isoform expression; also recorded: decrease in VEGF165”. Moreover, the “DSF (ΔTm/°C)” value on SRPK1 [2] is 17.36 °C.
Regarding `O=C(Nc1cc(C(F)(F)F)ccc1N1CCN(Cc2cocn2)CC1)c1ccc(-c2ccncc2)o1` [Compound 17, N-(2-(4-(oxazol-4-ylmethyl)piperazin-1-yl)-5-(trifluoromethyl)phenyl)-5-(pyridin-4-yl)furan-2-carboxamide], in assay [4], the “VEGF165b and VEGF165 protein” value is listed as “increase in VEGF165b, but not VEGF165 protein”. Besides, in the assay with laser-induced CNV, the “anti-angiogenic efficacy as an eye drop (CNV lesion size)” value was “same anti-angiogenic activity on lesion size and the same efficacy as reference compounds”.
At SRPK1 [1], `O=C(Nc1cc(C(F)(F)F)ccc1N1CCN(Cc2cncs2)CC1)c1ccco1` [Compound 13, N-(2-(4-(thiazol-5-ylmethyl)piperazin-1-yl)-5-(trifluoromethyl)-phenyl)furan-2-carboxamide] showed an IC50 of 39.5 nM. Also, the “DSF (ΔTm/°C)” value on SRPK1 [2] turned out to be 12.99 °C.
`O=C(Nc1cc(Cl)ccc1N1CCN(Cc2ccco2)CC1)c1ccccn1` [Compound 29, N-(5-chloro-2-(4-(furan-2-ylmethyl)piperazin-1-yl)phenyl)picolinamide]: the “DSF (ΔTm/°C)” value on SRPK1 [2] is 11.97 °C.
With `Cc1ccc(C(=O)Nc2cc(C(F)(F)F)ccc2N2CCN(Cc3ccco3)CC2)o1` [Compound 8, 5-methyl-N-(2-(4-((furan-2-yl)methyl)piperazin-1-yl)-5-(trifluoromethyl)phenyl)furan-2-carboxamide], inhibition at SRPK1 [1] was half-maximal at 17.6 nM (IC50). Besides, on SRPK1 [1] (by kinase assay or differential scanning fluorimetry, Figures 1 and 2), the “potency against SRPK1 relative to analogous compounds in which R3 is a pyridyl ring” value is on record as “improved potency”. Moreover, on SRPK1 [2], the “DSF (ΔTm/°C)” value is 15.95 °C.
In the case of `O=C(Nc1cc(C(F)(F)F)ccc1N1CCN(Cc2ccco2)CC1)c1ccccn1` [Compound 28, N-(2-(4-(furan-2-ylmethyl)piperazin-1-yl)-5-(trifluoromethyl)phenyl)-picolinamide], the “DSF (ΔTm/°C)” value at SRPK1 [2] is 14.44 °C.
`Cn1ccc(CN2CCN(c3ccc(C(F)(F)F)cc3NC(=O)c3ccco3)CC2)n1` [Compound 10, N-(2-(4-((1-methyl-1H-pyrazol-3-yl)methyl)piperazin-1-yl)-5-(trifluoromethyl)phenyl)furan-2-carboxamide]: at SRPK1 [2], the “DSF (ΔTm/°C)” value came to 10.87 °C.
`O=C(Nc1cc(C(F)(F)F)ccc1N1CCN(Cc2cocn2)CC1)c1nc2ccccc2o1` [Compound 55, N-(2-(4-(oxazol-4-ylmethyl)piperazin-1-yl)-5-(trifluoromethyl)phenyl)benzo[d]oxazole-2-carboxamide] registered an IC50 against SRPK1 [1] of 1840 nM.
